Experimental data reported in patent publication US6515112B2, “Cores for technetium radiopharmaceuticals” (Amersham PLC, priority 1989, dated 2003).

What was measured:
[1] = Animal biodistribution studies of 99mTc complexes in rats; assay type: in vivo, Male Sprague Dawley rats; design: Heart / Blood / Muscle / Lung / Liver / Kidney / Bladder & Urine / Brain: unit not given here; conditions: i.v. tail vein
Description: Complex Preparation: 20-25 μl of hydrazine was added to 2 cm^3 of absolute ethanol, then ^99mTcO4^−(0.2-3.0 GBq) and 10 mg of ligand were added to the solution. This mixture was heated to 120° C. for 30-60 minutes, cooled to room temperature and analyzed. For biodistribution studies the total volume of he preparation was made up to 5 cm^3 by the addition of sterile saline solution.
Animal Biodistribution Studies: Six Male Sprague Dawley rats were infected while under light ether anaesthesia with 0.1 cm^3 of preparation (i.v., tail vein) and half were sacrificed by cervical dislocation while under ether anaesthesia at the appropriate time interval post-infection and dissected. Organs were weighed and their activities measured in an ionisation chamber. For the purposes of calculations blood was assumed to constitute 5.8% of the total body weight, muscle was assumed to be 43% and the lungs were assumed to weigh 1 g.

[2] = Stability to air and moisture (observation); assay type: physicochemical; conditions: 99Tc complex, isolated solid
[3] = Solubility in solvents (observation); assay type: physicochemical; conditions: 99Tc complex, organic solvents

| Molecule | Bladder & Urine ([1]; Time P. I. 2) | Blood ([1]; Time P. I. 2) | Heart ([1]; Time P. I. 2) | Kidney ([1]; Time P. I. 2) | Liver ([1]; Time P. I. 2) | Lung ([1]; Time P. I. 2) | Muscle ([1]; Time P. I. 2) | Bladder & Urine ([1]; Time P. I. 60) | Blood ([1]; Time P. I. 60) | Heart ([1]; Time P. I. 60) | Kidney ([1]; Time P. I. 60) | Liver ([1]; Time P. I. 60) | Lung ([1]; Time P. I. 60) | Muscle ([1]; Time P. I. 60) | S. I. ([1]; Time P. I. 60) | stability to air / moisture [2] | solubility [3] | also measured |
| --- | --- | --- | --- | --- | --- | --- | --- | --- | --- | --- | --- | --- | --- | --- | --- | --- | --- | --- |
| CP(C)COCP(C)C (99mTc complex, metal not drawn) [PL28] | 0.11 | 4.18 | 1.12 | 9.41 | 17.8 | 1.18 | 30.2 | 10.9 | 0.46 | 0.65 | 5.90 | 5.95 | 0.62 | 27.4 | 39.6 | – | – | Brain ([1]; Time P. I. 2): 0.04; Brain ([1]; Time P. I. 60): 0.02 |
| CCOCC(COCC)(CP(C)C)CP(C)C (99mTc complex, metal not drawn) [PL42] | 0.06 | 28.6 | 1.22 | 5.35 | 22.8 | 2.56 | 18.1 | 2.61 | 8.99 | 1.19 | 3.52 | 14.7 | 1.57 | 21.3 | 31.8 | – | – | H/Bl ([1]; Time P. I. 2): 0.59; H/Li ([1]; Time P. I. 2): 0.73; S. I. ([1]; Time P. I. 2): 7.66; H/Bl ([1]; Time P. I. 60): 2.13; H/Li ([1]; Time P. I. 60): 1.12 |
| COCCC(CCOC)(CP(C)C)CP(C)C (99mTc complex, metal not drawn) [PL50] | 0.09 | 4.38 | 0.83 | 12.0 | 34.8 | 1.02 | 18.7 | 6.76 | 0.42 | 0.65 | 6.81 | 4.35 | 0.43 | 14.9 | 57.9 | – | – | H/Bl ([1]; Time P. I. 2): 2.68; H/Li ([1]; Time P. I. 2): 0.31; S. I. ([1]; Time P. I. 2): 12.8; H/Bl ([1]; Time P. I. 60): 22.2; H/Li ([1]; Time P. I. 60): 1.27 |
| CCCC[N+](CCCC)(CCCC)CCCC.Cc1ccc([N]=[Tc-]([Cl])([Cl])([Cl])[Cl])cc1 [Complex 1, Tetrabutylammonium(1+)tetrachloro(p-tolylimido) technetate (V) (1−)] | – | – | – | – | – | – | – | – | – | – | – | – | – | – | – | quite sensitive to adventitious moisture | – | – |
| CCCC[N+](CCCC)(CCCC)CCCC.Cc1ccc([N]=[Tc-]([Br])([Br])([Br])[Br])cc1 [Complex 2, Tetrabutylammonium(1+)tetrabromo(p-tolylimido) technetate (V) (1−)] | – | – | – | – | – | – | – | – | – | – | – | – | – | – | – | quite sensitive to adventitious moisture | – | – |
| Clc1ccc(N=[N][Tc]([Cl])([N]=Nc2ccc(Cl)cc2)([PH](c2ccccc2)(c2ccccc2)c2ccccc2)[PH](c2ccccc2)(c2ccccc2)c2ccccc2)cc1 [Complex 9, [TcCl(NNC6H4Cl)2(PPh3)2]] | – | – | – | – | – | – | – | – | – | – | – | – | – | – | – | air-stable | reasonably soluble | – |
| O=C1[O][Tc]([Cl])([Cl])([P+](c2ccccc2)(c2ccccc2)c2ccccc2)([P+](c2ccccc2)(c2ccccc2)c2ccccc2)=[N]c2ccccc21 [Complex 18, [TcCl2(NC6H4CO2)(PPh3)2]] | – | – | – | – | – | – | – | – | – | – | – | – | – | – | – | – | soluble in DMF and CH2Cl2 | – |
| [N]#[Tc]([Cl])([Cl])([P](c1ccccc1)(c1ccccc1)c1ccccc1)[P](c1ccccc1)(c1ccccc1)c1ccccc1 [Example 7, TcNCl2(Ph3)2] | – | – | – | – | – | – | – | – | – | – | – | – | – | – | – | air-stable | quite soluble in CH2Cl2 and insoluble in ether, petrol and alcohols | – |
| CN([N]=[Tc]([Cl])([Cl])([Cl])([P](c1ccccc1)(c1ccccc1)c1ccccc1)[P](c1ccccc1)(c1ccccc1)c1ccccc1)c1ccccc1 [Example 10, TcNNPhMe(PPh3)2Cl3] | – | – | – | – | – | – | – | – | – | – | – | – | – | – | – | air-stable | reasonably soluble | – |
| COCCOCC(COCCOC)(CP(C)C)CP(C)C [PL43] | 0.16 | 21.5 | 0.55 | 9.19 | 21.4 | 1.47 | 21.7 | 25.4 | 1.14 | 0.26 | 2.32 | 9.08 | 0.22 | 10.9 | 45.6 | – | – | H/Bl ([1]; Time P. I. 2): 0.41; H/Li ([1]; Time P. I. 2): 0.38; S. I. ([1]; Time P. I. 2): 8.6; H/Bl ([1]; Time P. I. 60): 3.83; H/Li ([1]; Time P. I. 60): 0.40 |
| [Cl][Tc]([N]=Nc1ccccc1)([N]=Nc1ccccc1)([PH](c1ccccc1)(c1ccccc1)c1ccccc1)[PH](c1ccccc1)(c1ccccc1)c1ccccc1 [[TcCl(NNPh)2(PPh3)2], [Tc(NNPh)2Cl(PPh3)2]] | – | – | – | – | – | – | – | – | – | – | – | – | – | – | – | – | somewhat insoluble | solubility ([3]; listed as Tc(NNPh)2Cl(PPh3)2): only partially soluble in halogenated solvents and insoluble in alcohols |
| [TC(NNC6H4Cl)2(N2S2)]x [Complex 17] | – | – | – | – | – | – | – | – | – | – | – | – | – | – | – | – | too insoluble for satisfactory analysis by NMR | – |
| [Tc(NC6H4Z)Cl(dppe)2] (BPh4) Z═CH3 [Complex 6] | – | – | – | – | – | – | – | – | – | – | – | – | – | – | – | air-stable | quite soluble in CH2Cl2 and insoluble in ether, petrol and alcohols | – |
| [TcN(dppe)2Cl][PF6] [Example 8] | – | – | – | – | – | – | – | – | – | – | – | – | – | – | – | air-stable | quite soluble in CH2Cl2 and insoluble in ether, petrol and alcohols | – |
| [Tc^III(NNC6H4NO2) (Cl(dmpe)2]^+ | 0.08 | 5.68 | 1.15 | 9.47 | 22.4 | 2.27 | 26.2 | 7.28 | 0.92 | 0.67 | 9.47 | 12.3 | 1.04 | 16.8 | 33.8 | – | – | Brain ([1]; Time P. I. 2): 0.12; H/Bl ([1]; Time P. I. 2): 3.00; H/Li ([1]; Time P. I. 2): 0.72; S. I. ([1]; Time P. I. 2): 13.0; Brain ([1]; Time P. I. 60): 0.06; H/Bl ([1]; Time P. I. 60): 11.0; H/Li ([1]; Time P. I. 60): 0.76 |
